Patent publication US5324725A, “7-fused 2-(piperazinoalkyl) indole derivatives, intermediates and compositions thereof” (Kali-Chemie Pharma GmbH, priority 1991, dated 1994)

Test system: P.A.F.-induced aggregation of platelets from rabbit blood
Assay: Anti-P.A.F. effect in vitro: inhibition of P.A.F.-induced platelet aggregation
Format: cell-based, rabbit (New Zealand hybrids)
Conditions: Oryctolagus cuniculus, Platelet, test substance concentration 10^-5 mol/l
Procedure, shortened: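 Washed, aspirin-treated rabbit platelets (4×10^9/ml stock suspension) in modified Tyrode buffer, pH 7.4, preincubated 90 s with test compound at 10^-5 mol/l final, then challenged with P.A.F. Aggregation followed 4–5 min in an aggregometer. Inhibition expressed in % relative to P.A.F.-only (100%) and platelet-only (0%) controls.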

SMILES	inhibition at 10 µM [%]
Cc1ccnc(N2CCN(CCc3c(C)n4c5c(c(C(O)C(C)C)ccc35)SCC4)CC2)c1 (centres unmarked) [Example 89]	100
Cc1ccnc(N2CCN(CCc3c(C)n4c5c(cc(NC(=O)c6ccccc6)cc35)CCC4)CC2)c1 [Example 25, 8-Benzoylamino-5,6-dihydro-2-methyl-1-{2-[4-(4-methylpyridin-2-yl)piperazin-1-yl]-ethyl}-4H-pyrrolo[3,2,1-ij]quinoline]	43
Cc1ccnc(N2CCN(CCc3c(-c4ccc(O)cc4)n4c5c(cccc35)CCC4)CC2)c1 [Example 8, 2-(4-hydroxyphenyl)-1-{2-[4-(4-methylpyridin-2-yl)piperazin-1-yl]ethyl}-5,6-dihydro-4H-pyrrolo[3,2,1-ij]quinoline]	100
C=CCCC1CCc2cccc3c(CCN4CCN(c5cc(C)ccn5)CC4)c(C)n1c23 (centres unmarked) [Example 62]	70
CCCCCCCC1CCc2cccc3c(CCN4CCN(c5cc(C)ccn5)CC4)c(C)n1c23 (centres unmarked) [Example 4, 4-n-heptyl-5,6-dihydro-2-methyl-1-{2-[4-(4-methylpyridin-2-yl)piperazin-1-yl]ethyl}-4H-pyrrolo[3,2,1-ij]-quinoline]	58
Cc1ccnc(N2CCN(CCc3c(C)n4c5c(cccc35)CCC4C3CCCCC3)CC2)c1 (centres unmarked) [Example 87]	100
Cc1ccnc(N2CCN(CCc3c(C)n4c5c(cccc35)CCC4)CC2)c1 [Example 1, 5,6-Dihydro-2-methyl-1-{2-[4-(4-methylpyridin-2-yl)piperazin-1-yl]ethyl}-4H-pyrrolo[3,2,1-ij]quinoline]	97
CCCCC1CCc2cccc3c(CCN4CCN(c5cc(C)ccn5)CC4)c(C)n1c23 (centres unmarked) [Example 73, 4-n-butyl-5,6-dihydro-2-methyl-1-{2-[4-(4-methylpyridin-2-yl)piperazin-1-yl]ethyl}-4H-pyrrolo[3,2,1-ij]quinoline]	99
CCCCC1CCc2cc(C(=O)C(C)C)cc3c(CCN4CCN(c5cc(C)ccn5)CC4)c(C)n1c23 (centres unmarked) [Example 23, 4-n-Butyl-5,6-dihydro-8-(2-methyl-1-oxopropyl)-2-methyl-1-{2-[4-(4-methylpyridin-2-yl)piperazin-1-yl]ethyl}-4H-pyrrolo[3,2,1-ij]quinoline]	100
Cc1c(CCN2CCN(c3ccccn3)CC2)c2cccc3c2n1CCC3 [Example 37]	28
Cc1ccnc(N2CCN(CCc3c(C)n4c5c(cccc35)CCC4c3ccc(O)cc3)CC2)c1 (centres unmarked) [Example 61]	83
CC(C)=Cc1cc2c3c(c1)c(CCN1CCN(c4cc(C)ccn4)CC1)c(C)n3CCC2 [Example 26, 5,6-Dihydro-2-methyl-8-(2-methylprop-1-enyl)-1-{2-[4-(4-methylpyridin-2-yl)piperazin-1-yl]ethyl}-4H-pyrrolo[3,2,1-ij]quinoline]	89
COc1ccc(C2CCc3cc(OC)cc4c(CCN5CCN(c6cc(C)ccn6)CC5)c(C)n2c34)cc1 (centres unmarked) [Example 65]	100
Cc1ccnc(N2CCN(CCc3c(C)n4c5c(ccc(C(O)C(C)C)c35)SCC4)CC2)c1 (centres unmarked) [Example 90]	64
Cc1ccnc(N2CCN(CCc3c(C)n4c5c(cccc35)SCC4)CC2)c1 [Example 11, 5-Methyl-6-{2-[4-(4-methylpyridin-2-yl)piperazin-1-yl]ethyl}-2,3-dihydro-pyrrolo[1,2,3-de]-1,4-benzo-thiazine]	89
Cc1ccnc(N2CCN(CCc3c(C)n4c5c(cc([N+](=O)[O-])cc35)CCC4)CC2)c1 [Example 10, 2-Methyl-8-nitro-1-{2-[4-(4-methylpyridin-2-yl)-piperazin-1-yl]ethyl}-5,6-dihydro-4H-pyrrolo[3,2,1-ij]quinoline]	94
Cc1ccnc(N2CCN(CCc3c(C)n4c5c(cccc35)CCC4c3ccccc3)CC2)c1 (centres unmarked) [Example 3, 5,6-dihydro-2-methyl-4-phenyl-1-{2-[4-(4-methylpyridine-2-yl)piperazin-1-yl]-ethyl}-4H-pyrrolo[3,2,1-ij]quinoline]	100
Cc1cc2c3c(c1)c(CCN1CCC(C(=O)c4ccc(F)cc4)CC1)c(C)n3CCC2 [Example 55]	40
COc1ccc(-c2c(CCN3CCN(c4cc(C)ccn4)CC3)c3cccc4c3n2CCC4)cc1 [Example 7, 2-(4-methoxy-phenyl)-1-{2-[4-(4-methylpyridin-2-yl)piperazin-1-yl]ethyl}-5,6-dihydro-4H-pyrrolo[3,2,1-ij]quinoline]	100
Cc1ccnc(N2CCN(CCc3c(C)n4c5c(cccc35)CC4C)CC2)c1 (centres unmarked) [Example 33]	71
Cc1ccnc(N2CCN(CCc3c(C)n4c5c(cc(C(O)C(C)C)cc35)CCC4)CC2)c1 (centres unmarked) [Example 19, 5,6-Dihydro-8-(1-hydroxy-2-methylpropyl)-2-methyl-1-{2-[4-(4-methylpyridin-2-yl)piperazin-1-yl]ethyl}-4H-pyrrolo-[3,2,1-ij]quinoline]	83
CCCCC1CCc2cc(OC)cc3c(CCN4CCN(c5cc(C)ccn5)CC4)c(C)n1c23 (centres unmarked) [Example 63]	98
Cc1ccnc(N2CCN(CCc3c(C)n4c5c(cc(Cc6ccccc6)cc35)CCC4)CC2)c1 [Example 77]	100
Cc1ccnc(N2CCN(CCc3c(C)n4c5c(cc(C)cc35)CCC4)CC2)c1 [Example 54]	75

SMILES	inhibition at 10 µM [%]
Cc1ccnc(N2CCN(CCc3c(C)n4c5c(cc(Br)cc35)CCC4)CC2)c1 [Example 9, 8-Bromo-2-methyl-1-{2-[4-(4-methylpyridin-2-yl)piperazin-1-yl]ethyl}-5,6-dihydro-4H-pyrrolo[3,2,1-ij]quinoline]	73
CC(=O)c1cc2c3c(c1)c(CCN1CCN(c4cc(C)ccn4)CC1)c(C)n3CCC2 [Example 67]	76
Cc1ccnc(N2CCN(CC(O)c3c(C4CCCCC4)n4c5c(cccc35)CCC4)CC2)c1 (centres unmarked) [Example 85]	100
Cc1ccnc(N2CCN(CCc3c(C)n4c5c(cc(C(=O)c6ccccc6)cc35)CCC4)CC2)c1 [Example 66]	100
CCc1c(CCN2CCN(c3cc(C)ccn3)CC2)c2cccc3c2n1CCC3 [Example 15, 2-Ethyl-5,6-dihydro-1-{2-[4-(4-methylpyridin-2-yl)piperazin-1-yl]ethyl}-4H-pyrrolo[3,2,1-ij]quinoline]	85
Cc1ccnc(N2CCN(CCc3c(C)n4c5c(cccc35)C(C)CC4)CC2)c1 (centres unmarked) [Example 57]	86
Cc1ccnc(N2CCN(CCc3c(C)n4c5c(ccc(Cl)c35)OCC4)CC2)c1 [Example 35]	56
Cc1ccnc(N2CCN(CCc3c(C)n4c5c(cc(C(=O)C(C)C)cc35)CCC4)CC2)c1 [Example 27, 5,6-dihydro-2-methyl-8-(2-methyl-1-oxopropyl)-1-{2-[4-(4-methylpyridin-2-yl)piperazin-1-yl]ethyl}-4H-pyrrolo-[3,2,1-ij]quinoline]	83
Cc1ccnc(N2CCN(CCc3c(C)n4c5c(c(Cl)cc(Cl)c35)OCC4)CC2)c1 [Example 79]	71
Cc1ccnc(N2CCN(CCc3c(-c4ccc(OCCCCO)cc4)n4c5c(cccc35)CCC4)CC2)c1 [Example 12, 2-[4-(4-Hydroxybutyloxy)-phenyl]-1-{2-[4-(4-methylpyridin-2-yl)piperazin-1-yl]ethyl}-5,6-dihydro-4H-pyrrolo[3,2,1-ij]quinoline]	100
COc1ccc(C2CCc3cccc4c(CCN5CCN(c6cc(C)ccn6)CC5)c(C)n2c34)cc1 (centres unmarked) [Example 59]	89
Cc1ccnc(N2CCN(CCc3c(C)n4c5c(cc(C(=O)C6CCCCC6)cc35)CCC4)CC2)c1 [Example 83]	100
CC(=O)Oc1cc2c3c(c1)c(CCN1CCN(c4cc(C)ccn4)CC1)c(C)n3CCC2 [Example 24, 8-Acetoxy-5,6-dihydro-2-methyl-1-{2-[4-(4-methyl-pyridin-2-yl)piperazin-1-yl]ethyl}-4H-pyrrolo[3,2,1-ij]quinoline]	80
Cc1ccnc(N2CCN(CCc3cn4c5c(cccc35)CCC4)CC2)c1 [Example 13, 5,6-Dihydro-1-{2-[4-(4-methylpyridin-2-yl)piperazin-1-yl]ethyl}-4H-pyrrolo[3,2,1-ij]quinoline]	93
CCc1c(C(O)CN2CCN(c3cc(C)ccn3)CC2)c2cccc3c2n1CCC3 (centres unmarked) [Example 14, 2-Ethyl-5,6-dihydro-1-{2-[4-(4-methylpyridin-2-yl)piperazin-1-yl]-1-hydroxyethyl}-4H-pyrrolo[3,2,1-ij]quinoline]	86
Cc1ccnc(N2CCN(CCc3c(C)n4c5c(cc(N)cc35)CCC4)CC2)c1 [Example 20, 8-Amino-5,6-dihydro-2-methyl-1-{2-[4-(4-methylpyridin-2-yl)piperazin-1-yl]ethyl}-4H-pyrrolo[3,2,1-ij]quinoline]	17
Cc1ccnc(N2CCN(CCc3c(C)n4c5c(cc(NC(=O)C(C)C)cc35)CCC4)CC2)c1 [Example 60]	44
CCCCC1CCc2cc(O)cc3c(CCN4CCN(c5cc(C)ccn5)CC4)c(C)n1c23 (centres unmarked) [Example 76]	99
Cc1ccnc(N2CCN(CCc3c(-c4ccc(F)cc4)n4c5c(cccc35)CCC4)CC2)c1 [Example 47]	95
Cc1ccnc(N2CCN(CCc3c(C)n4c5c(cc(CC(C)C)cc35)CCC4)CC2)c1 [Example 21, 5,6-Dihydro-2-methyl-8-(2-methylpropyl)-1-{2-[4-(4-methylpyridin-2-yl)piperazin-1-yl]ethyl}-4H-pyrrolo[3,2,1-ij]quinoline]	91
CNc1cc2c3c(c1)c(CCN1CCN(c4cc(C)ccn4)CC1)c(C)n3CCC2 [Example 80]	72
Cc1ccnc(N2CCN(CCc3c(CO)n4c5c(cccc35)CCC4)CC2)c1 [Example 16, 5,6-dihydro-2-hydroxymethyl-1-{2-[4-(4-methylpyridin-2-yl)piperazin-1-yl]ethyl}-4H-pyrrolo[3,2,1-ij]quinoline]	73
Cc1ccnc(N2CCN(CCc3c(C)n4c5c(ccc(C(=O)C(C)C)c35)SCC4)CC2)c1 [Example 91]	58
